From ChEMBL document CHEMBL2407085, “Structure-Activity Relationships and in Vivo Evaluation of Quinoxaline Derivatives for PET Imaging of β-Amyloid Plaques” (ACS Med Chem Lett, 2013)
The source made the active and inactive calls. No cut-off for these calls is given here.

Key:
[1] = Drug uptake in Alzheimer's disease patient white matter at 370 kBq/100 uL after 1 hr by thioflavin-S based autoradiography; format: ADME, tissue-based; conditions: human, in vitro
Brain [2] = assay: Biodistribution in Tg2576 ddY mouse brain at 23.4 to 48.2 kBq, iv measured at 2 to 10 mins by autoradiography; format: ADME, organism-based; conditions: in vivo
Brain [3] = assay: Biodistribution in Tg2576 ddY mouse brain at 23.4 to 48.2 kBq, iv measured at 60 mins by autoradiography; format: ADME, organism-based; conditions: in vivo, 1 h
[4] = biological target: T1, Amyloid-beta precursor protein (Homo sapiens, UniProt P05067); assay: Binding affinity to beta-amyloid plaque in Alzheimer's disease patient brain cortex after 1 hr by thioflavin-S based autoradiography
T1 sequence (P05067 whole entry): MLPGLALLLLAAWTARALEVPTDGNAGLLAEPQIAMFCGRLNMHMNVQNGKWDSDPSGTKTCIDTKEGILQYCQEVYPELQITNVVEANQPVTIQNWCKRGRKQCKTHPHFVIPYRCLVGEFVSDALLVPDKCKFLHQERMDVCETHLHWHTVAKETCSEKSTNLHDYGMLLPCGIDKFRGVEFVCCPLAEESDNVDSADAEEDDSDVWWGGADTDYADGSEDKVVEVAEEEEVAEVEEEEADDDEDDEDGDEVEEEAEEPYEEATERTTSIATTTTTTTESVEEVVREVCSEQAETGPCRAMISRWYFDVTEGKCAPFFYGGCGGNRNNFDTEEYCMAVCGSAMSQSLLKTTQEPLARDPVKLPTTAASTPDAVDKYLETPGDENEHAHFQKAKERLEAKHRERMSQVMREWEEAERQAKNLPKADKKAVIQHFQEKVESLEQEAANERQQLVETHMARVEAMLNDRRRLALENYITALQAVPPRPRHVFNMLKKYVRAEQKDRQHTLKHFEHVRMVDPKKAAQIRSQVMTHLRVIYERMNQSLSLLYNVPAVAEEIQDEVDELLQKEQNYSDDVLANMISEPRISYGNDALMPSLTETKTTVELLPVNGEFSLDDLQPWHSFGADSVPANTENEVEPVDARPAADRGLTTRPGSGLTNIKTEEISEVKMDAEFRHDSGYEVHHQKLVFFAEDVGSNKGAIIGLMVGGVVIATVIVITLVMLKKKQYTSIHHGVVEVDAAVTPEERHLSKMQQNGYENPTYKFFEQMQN

Brain [5] = assay: Ratio of drug uptake in ddY mouse brain at 23.4 to 48.2 kBq, iv measured at 2 mins to drug uptake in ddY mouse brain at 23.4 to 48.2 kBq, iv measured at 60 mins; conditions: in vivo
[6] = biological target: T1, Amyloid-beta precursor protein; assay: Displacement of [125I]IMPY from amyloid beta (1 to 42) (unknown origin) after 3 hrs by gamma counting
Mus musculus [7] = assay: Ex vivo binding affinity to beta-amyloid plaque in wild-type mouse brain at 5.5 MBq, iv measured at 1 hr by Thioflavin-S fluorescence microscopy; format: functional, organism-based; conditions: 5.5 M, tested as the 18F-labelled form
Mus musculus [8] = assay: Ex vivo binding affinity to beta-amyloid plaque in Tg2576 mouse brain at 5.5 MBq, iv measured at 1 hr by Thioflavin-S fluorescence microscopy; format: functional, organism-based; conditions: 5.5 M, tested as the 18F-labelled form
[9] = biological target: T1, Amyloid-beta precursor protein; assay: Ratio of AV-45 Ki to compound Ki for amyloid beta (1 to 42) (unknown origin) […] by gamma counting
Mus musculus [10] = assay: Biodistribution in Tg2576 ddY mouse olfactory tract at 5.5 MBq, iv by autoradiography; format: ADME, organism-based; conditions: in vivo
Mus musculus [11] = assay: Biodistribution in Tg2576 ddY mouse anterior commissure at 5.5 MBq, iv by autoradiography; format: ADME, organism-based; conditions: in vivo
Mus musculus [12] = assay: Biodistribution in Tg2576 ddY mouse external capsule at 5.5 MBq, iv by autoradiography; format: ADME, organism-based; conditions: in vivo
Mus musculus [13] = assay: Biodistribution in Tg2576 ddY mouse corpus callosum at 5.5 MBq, iv by autoradiography; format: ADME, organism-based; conditions: in vivo

Drug uptake [1] | Drug uptake (Brain [2]) | Ratio (Brain [5]) | SMILES | Drug uptake (Brain [3]) [% ID/g] | Ki [4] [nM] | also measured
Active | 4.69 % ID/g | 2.36 | CNc1ccc(-c2cnc3ccc(OCC[18F])cc3n2)cc1 | 1.48 | > 242 | 
Active | 4.69 % ID/g | 2.36 | Nc1ccc(-c2cnc3cc(OCC[18F])ccc3n2)cc1 | 1.48 | > 242 | 
 | Active | 3.8 | CNc1ccc(/C=C/c2ccc(OCCOCCOCC[18F])nc2)cc1 [FLORBETAPIR F 18] |  |  | 
Active | 4.69 % ID/g | 2.36 | Nc1ccc(-c2cnc3ccc(OCC[18F])cc3n2)cc1 | 1.48 | > 242 | 

Further lines, the molecule ahead of its results:

SMILES | Drug uptake [1] | Drug uptake (Brain [2]) | Ratio (Brain [5]) | Drug uptake (Brain [3]) [% ID/g] | Ki [4] [nM] | also measured
CN(C)c1ccc(-c2cnc3ccc(OCC[18F])cc3n2)cc1 |  | 4.69 % ID/g | 3.91 | 1.48 | 111 | 
CNc1ccc(/C=C/c2ccc(OCCOCCOCCF)nc2)cc1 [FLORBETAPIR] |  |  |  |  |  | Ki [6]: 12.8 nM
CN(C)c1ccc(-c2cnc3cc(OCCF)ccc3n2)cc1 |  |  |  |  |  | Activity (Mus musculus [7]): Active; Activity (Mus musculus [8]): Active; Ratio Ki [9]: 10; Ki [6]: 0.895 nM
CNc1ccc(-c2cnc3cc(OCC[18F])ccc3n2)cc1 | Not Active | 4.69 % ID/g | 2.36 | 1.48 | 15.7 | 
CN(C)c1ccc(-c2cnc3cc(OCC[18F])ccc3n2)cc1 | Not Active | 4.69 % ID/g | 2.36 | 1.48 | 0.895 | Drug uptake (Mus musculus [10]): Active; Drug uptake (Mus musculus [11]): Active; Drug uptake (Mus musculus [12]): Active; Drug uptake (Mus musculus [13]): Active
